Entries after “also recorded” stand apart in the source; their conditions may differ. Marks after values point to notes of the source that are not given here.
Columns and labels:
[1] = system: human breast cancer ZR-75-1 xenografts; test: Tamoxifen-stimulated growth of ZR-75-1 xenografts in nude mice with or without EM-652.HCl (FIG. 9); format: in vivo
[2] = system: human Ishikawa cells; test: Alkaline phosphatase activity in human endometrial adenocarcinoma Ishikawa cells; format: cell-based; details: 5 days
Description: The human Ishikawa cell line derived from a well differentiated endometrial adenocarcinoma was kindly provided by Dr. Erlio Gurpide, The Mount Sinai Medical Center, New York, N.Y. The Ishikawa cells were routinely maintained in Eagle's Minimum Essential Medium (MEM) containing 5% (vol/vol) FBS (Fetal Bovine Serum) and supplemented with 100 U/ml penicillin, 100 μg/ml streptomycin, 0.1 mM non-essential amino acids solution. Cells were plated in Falcon T75 flasks at a density of 1.5×10^6 cells at 37° C.
Twenty four hours before the start of the experiment, the medium of near confluent Ishikawa cells was replaced by fresh estrogen-free basal medium (EFBM) consisting of a 1:1 (v:v) mixture of phenol red-free Ham's F-12 and Dulbecco's Modified Eagle's Medium (DMEM) supplemented with 100 U/mL penicillin, 100 μg/mL streptomycin, 2 mM glutamine, and 5% FBS treated twice with dextran-coated charcoal to remove endogenous steroids. Cells were then harvested by 0.1% pancreatin (Sigma) and 0.25 mM HEPES, resuspended in EFBM and plated in Falcon 96, well flat-bottomed microtiter plates at a density of 2.2×10^4 cells/well in a volume of 100 μl and allowed to adhere to the surface of the plates for 24 h. Thereafter, medium was replaced with fresh EFBM containing the indicated concentrations of compounds in a final volume of 200 μl. Cells were incubated for five days, with a medium change after 48 h.
At the end of the incubation period, microtiter plates were inverted and growth medium was decanted. The plates were rinsed with 200 μl by well of PBS (0.15M NaCl, 10 mM sodium phosphate, pH 7.4). PBS was then removed from the plates while carefully leaving some residual PBS, and the wash procedure was repeated once. The buffered saline was then decanted, and the inverted plates were blotted gently on a paper towel. Following replacement of the covers, the plates were placed at −80° C. for 15 min followed by thawing at room temperature for 10 min. […] Plates were monitored at 405 nm in an enzyme-linked immunosorbent assay plate reader (BIO-RAD, model 2550 EIA Reader).

[3] = system: ovariectomized female rats; test: Prevention of bone loss, body fat, serum cholesterol and ALP, 3-month treatment of OVX rats (Example 5A, experiment 1); format: in vivo, Sprague-Dawley rats; details: OVX rats, 3 months
Description: Ten to twelve week-old female Sprague-Dawley rats (Crl:CD(SD)Br) (Charles River Laboratory, St-Constant, Canada) weighing approximately 220-270 g at start of treatment were used. The animals were acclimatized to the environmental conditions (temperature: 22±3° C.; humidity: 50±20%; 12-h light-12-h dark cycles, lights on at 07:15 h) for at least 1 week before starting the experiments. The animals were housed individually and were allowed free access to tap water and a pelleted certified rodent feed (Lab Diet 5002, Ralston Purina, St-Louis, Mo.). Experiments were conducted in an animal facility approved by the Canadian Council on Animal Care (CCAC) and the Association for Assessment and Accreditation of Laboratory Animal Care (AAALAC) in accordance with the CCAC Guide for Care and Use of Experimental Animals.
On day 1 of the study, the animals of the appropriate groups were bilaterally ovariectomized (OVX) under isoflurane anesthesia. […] Treatments were initiated on day 2 of the study and were performed once daily during 3 months.
After 3 months (experiment 1) or 26 weeks (experiment 2) of treatment, individual rats under Isoflurane anesthesia had their whole body skeleton and lumbar spine scanned using dual energy x-ray absorptiometry (DEXA; QDR 4500A, Hologic, Waltham, Mass.) and a Regional High Resolution Scan software. The bone mineral density (BMD) of the lumbar spine (vertebrae L2 to L4) and the total body composition (fat percentage) were determined.
After 3 months (experiment 1) or 26 weeks (experiment 2) of treatment, blood samples were collected at the jugular vein from overnight fasted animals (under Isoflurane anesthesia). Samples were processed for serum preparation and frozen at −80° C. until assay. Serum cholesterol levels and alkaline phospatase activity (ALP) were determined using the Boehringer Mannheim Diagnostic Hitachi 911 Analyzer (Boehringer Mannheim Diagnostic Laboratory Systems).

[4] = system: endometrial epithelium; test: Thickness of uterine (endometrial) epithelial cells in the mice of Example 8; format: in vivo, nude mice; details: for Endometrial epithelium thickness: 161 days
Description: The 17 groups included two control groups (OVX and OVX+Estrone), seven groups supplemented with an estrone implant and treated with an antiestrogen and eight other groups that received an antiestrogen alone. The estrone implants were then removed from the animals in the ovariectomized control group (OVX) and in groups that were to receive the antiestrogen alone. […] Tamoxifen was purchased from […], Israel) while toremifene citrate was purchased from Orion (Espoo, Finland). […] Animals in both control groups received 0.2 ml of the vehicle alone. The antiestrogen suspensions at the appropriate concentration were prepared each month, stored at 4° C. and used under constant agitation. Powder stock were hermetically stored at 4° C. […] After 161 days of treatment, the remaining animals were anesthetized with isoflurane and killed by exsanguination. […] The uteri were prepared to evaluate endometrial thickness by image analysis performed with Image Pro-Plus (Media Cybernetics, Maryland, USA). […] Hematoxylin- and eosin-stained sections of mice uteri were analysed. […] Mean epithelial cell height was measured in all animals of each group.

SMILES: CC1=C(c2ccc(O)cc2)[C@H](c2ccc(OCCN3CCCCC3)cc2)Oc2cc(O)ccc21.Cl [EM-652.HCl, (S)-(+)-7-hydroxy-3-(4′-hydroxyphenyl)-4-methyl-2-(4″-(2′″-piperidinoethoxy)phenyl)-2H-1-benzopyran hydrochloride]
- Effect on tumor growth in the absence of Tamoxifen ([1]; EM-652.HCl by itself, hydrochloride): has no effect on tumor growth; also recorded: did not exert any stimulatory effect
- Effect on the stimulatory effect of Tamoxifen on tumor growth ([1]; simultaneous treatment with Tamoxifen): completely blocked
- Maximal inhibition of 1 nM E2-induced stimulation of alkaline phosphatase ([2]; 1 nM E2): 98.97 ± 0.174 (18)
- IC50 ([2]; Homo sapiens, 120 h, 1 nM E2, read-out: Inhibition of 1 nM E2-induced stimulation of alkaline phosphatase IC50): 1.52 ± 0.22 nM
- Emax ([2]; Homo sapiens, 120 h, read-out: Maximal stimulation of alkaline phosphatase, % of 1 nM E2 stimulation): 1.88 ± 0.26%
- OVX-induced fat percentage increase [3]: completely prevented
- Serum ALP [3]: 91 ± 6 IU/L
- Serum cholesterol [3]: 0.87 ± 0.04 mmol/L
- Inhibition of the stimulatory effect of estrone on epithelial height ([4]; 50 μg daily oral + estrone): 70%
- Height of uterine epithelial cells, of the OVX control group value ([4]; 200 μg daily, absence of estrone): 114%
- Endometrial epithelium thickness ([4]; OVX + E1 + antiestrogen 50 μg daily): 25.06^b ± 0.07 μm
- Endometrial epithelium thickness ([4]; OVX + antiestrogen 200 μg daily, no estrone): 20.79 ± 0.10 μm

Reference: patent publication US20030040510A1, “Selective estrogen receptor modulators in combination with estrogens” (Endorecherche, Inc., priority 2000, published 2003)
